# Test system: LXR target genes
# Test: Gene expression of LXR target genes in myotubes by Real-Time RT-PCR
# Format: cell-based, human
# Details: for expression of LXRα, increase / expression of SREBP1c, increase: mRNA normalized to 36B4; for mRNA expression of ACSL1, increase / mRNA expression of FAS, increase / mRNA expression of SCD-1, increase / mRNA expression of fatty acid transporter CD36, increase: 1 μM T0901317 or 10 μM 22-R-HC for 4 days; for mRNA expression of CD36, FAS, ACSL1 and SCD-1 compared to T0901317: 10 μM for 4 days vs 1 μM T0901317
# From the text: FIG. 5. Effects of 22-hydroxycholesterols on expression of LXR target genes in human myotubes. Human myoblasts were differentiated and treated with LXR ligands as described in FIG. 3. Total RNA were isolated from the cells, reversely transcribed and analyzed by Real-Time RT-PCR. Results are normalized to levels of 36B4 and present means±SEM (n=4-6; independent muscle cell donors). Relative expressions of (A) liver X receptor […], LXRβ, and sterol regulatory element-binding protein (SREBP)1c, (B) ATP-binding cassette transporter (ABC)A1 (C) acyl-CoA synthetase long chain family member 1 (ACSL1), fatty acid transporter (CD36), fatty acid synthase (FAS), and stearoyl-CoA desaturase (SCD)-1. *p<0.05 vs control, **p<0.05 vs all other treatments.
# Human skeletal muscle cell cultures. A cell bank of satellite cells was established from muscle biopsy samples of the M. vastus lateralis of 6 healthy volunteers, age 25.7 years (±1.4), with BMI 21.6 (±1.0) and fasting glucose and insulin within normal range. The biopsies were obtained with informed consent and by approval of the National Committee for Research Ethics, Oslo, Norway. Muscle cell cultures free of fibroblasts were established by the method of Henry et al. (Diabetes, 44, 936-946, 1995), with minor modifications. Briefly, muscle tissue was dissected in Ham's F-10 media at 4° C., dissociated by three successive treatments with 0.05% trypsin/EDTA, and satellite cells were re-suspended in SkGM with 2% FCS and no added insulin. The cells were grown on culture wells coated with ECM gel (Apmis, 109, 726-734, 2001). At about 80% confluence, fusion of myoblasts into multinucleated myotubes was achieved by growth in DMEM with 2% FCS. All cells used were at passage 4 to 6. After 2 days in DMEM the cells were exposed to vehicle (0.1% DMSO), 1 μM T0901317, 10 μM 22-R-hydroxycholesterol (22-R-HC) or 10 μM 22-S-hydroxycholesterol (22-S-HC) for 4 days.
# RNA isolation and analysis of gene expression by RT-PCR. Myotubes were washed, trypsinized and pelleted before total RNA was isolated by RNeasy Mini kit (Qiagen Sciences, Oslo, Norway) or Agilent Total RNA Mini kit (Matrix, Oslo, Norway) according to the suppliers total RNA isolation protocol. RNA samples were incubated with RNase-free DNase (Qiagen Sciences) for minimum 15 min in an additional step during the RNA isolation procedure. Total RNA (1 μg/μl) was reversely transcribed with hexamere primers using a Perkin-Elmer Thermal Cycler 9600 (25° C. for 10 min, 37° C. for 1 h, 99° C. for 5 min) and a TaqMan reverse-transcription reagents kit (Applied Biosystems). Real time PCR was performed using an ABI PRISM® 7000 Detection System. DNA expression was determined by SYBR® Green (Applied Biosystems), and primers [36B4 (Acc#M17885), ACSL1 (Acc#NM_001995), ABCA1 (Acc#AF165281), CD36 (Acc#L06850), FAS (Acc#U26644), GAPDH (Acc#J104038/M33197, GLUT4 (Acc#M20747), LXRα (Acc#U22662), LXR (Acc#U07132), Myogenin (Acc#X17651), MyoD (Acc#BC064493), PPARα (Acc#L02932), PPARδ (Acc#BC002715), PPARγ (Acc#L40904), SCD-1 (Acc#AB032261), SREBP1c (Acc#U00968)], GLUT1, (Acc#03195), GLUT3 (Acc#M20681), HKII (Acc#AF148513) were designed using Primer Express® (Applied Biosystems). Each target gene was quantified in triplicates and carried out in a 25 μl reaction volume according to the suppliers protocol. All assays were run for 40 cycles (95° C. for 12 s followed by 60° C. for 60 s). The transcription levels were normalized to the housekeeping control genes 36B4 and GAPDH.
# [1] = 1 μM T0901317 or 10 μM 22-HC for 4 days
# [2] = 10 μM chronic treatment (4 days)
SMILES,"expression level of ABCA1, increase [1]","expression of LXRα, increase [1]","expression of SREBP1c, increase [1]","mRNA expression of ACSL1, increase","mRNA expression of FAS, increase","mRNA expression of SCD-1, increase","mRNA expression of fatty acid transporter CD36, increase","mRNA expression of CD36, FAS, ACSL1 and SCD-1 compared to T0901317",expression level of LXRbeta [1],"ACSL1 mRNA expression, down-regulation [2]","CD36 mRNA expression, down-regulation [2]","SCD-1 mRNA expression, down-regulation [2]"
"CC(C)CC[C@@H](O)[C@@H](C)[C@H]1CC[C@H]2[C@@H]3CC=C4C[C@@H](O)CC[C@]4(C)[C@H]3CC[C@]12C [Example 22-R-HC, 22-R-hydroxycholesterol]",17 fold,2-3 fold,2-3 fold,unaffected,unaffected,unaffected,unaffected,significantly reduced,–,–,–,–
"CC(C)CC[C@H](O)[C@@H](C)[C@H]1CC[C@H]2[C@@H]3CC=C4C[C@@H](O)CC[C@]4(C)[C@H]3CC[C@]12C [Example 22-S-HC, 22-S-hydroxycholesterol]",very slightly (but insignificantly),None of the genes described in FIG. 5A-B were significantly affected,None of the genes described in FIG. 5A-B were significantly affected,–,–,–,–,significantly reduced,None of the genes described in FIG. 5A-B were significantly affected,50-80%,50-80%,50-80%
O=S(=O)(c1ccccc1)N(CC(F)(F)F)c1ccc(C(O)(C(F)(F)F)C(F)(F)F)cc1 [Example T0901317],14 fold,4-5 fold,4-5 fold,5 fold,4 fold,10 fold,2 fold,–,–,–,–,–

# Source: patent publication US20100137266A1, “TREATMENT OF INSULIN RESISTANCE AND DISORDERS ASSOCIATED THEREWITH” (UNIVERSITETET I OSLO, priority 2006, published 2010)
